Values quoted from earlier work, collected in patent US20070275095A1, “TREATMENT OF INFLAMMATORY, AUTOIMMUNE, OR OTHER DISORDERS, USING AGENTS THAT REDUCE THE SEQUESTERING OF ZINC BY CALPROTECTIN” (priority 2005, published 2007).

Experiments:
[1] = system: calprotectin; conditions: Oyama et al 1997
[2] = system: neutrophil cells; conditions: Oyama et al 1997
[3] = system: calprotectin; conditions: zinc binding not measured directly; apoptosis measured (Yui et al 1998 and 2003, Mikami et al 1999)
[4] = system: tumor necrosis factor (TNF); conditions: same literature reports
[5] = clinical trials reviewed in Kidd 2002, Kern et al 2004, Esch et al 2004, Sturmey 2005

Row | Compound | binding to calprotectin molecules in neutrophils [1] | suppression of calprotectin release by neutrophils [2] | inhibition of zinc binding by calprotectin [3] | inhibition of tumor necrosis factor (TNF) [4] | clinical trial outcome in autism [5]
1 | CC(C)c1ccc2oc3nc(N)c(C(=O)O)cc3c(=O)c2c1 [amlexanox] | bind to calprotectin molecules contained in the neutrophils | impedes and suppresses the release of calprotectin by the neutrophils |  |  | 
2 | O[C@H]1[C@H]2c3cc4c(cc3CN3CCC(=C[C@@H]1O)[C@H]23)OCO4 [lycorine] |  |  | appear to inhibit zinc binding by calprotectin, to some extent | appear to inhibit | 
3 | secretin |  |  |  |  | mainly negative results
4 | O=C1N[C@@H]2C(=C[C@H](O)[C@@H](O)[C@H]2O)c2cc3c(c(O)c21)OCO3 [lycoricidinol] |  |  | appear to inhibit zinc binding by calprotectin, to some extent | appear to inhibit | 
